One assay addresses sGC α1/β1 heterodimer (Homo sapiens (Human), UniProt Q02108+Q02153). Nature of the assay: Cell-based sGC functional assay (CASA assay), cGMP by HTRF. As to conditions: CHO-K1/sGC cells; for Emax: CHO-K1, cGMP production as percentage of maximum of compound A (set to 100%), read-out: % Activation; for EC50: inflection point of cGMP production, 4P fit, read-out: IP. From the text: Cell-Based sGC Functional Assay (Cyclic GMP Assay for sGC Activator: CASA Assay)
Soluble guanylate cyclase (sGC) is a heme-containing enzyme that converts GTP to secondary messenger cGMP. Increases in cGMP levels affect several physiological processes including vasorelaxation through multiple downstream pathways. […] Heme-dependent activators (HDAs) preferentially target sGC containing a ferrous heme group. To determine the effect of sGC activators on enzyme activity, the CASA assay was developed to monitor the generation of cGMP in a cell line that stably expresses the heterodimeric sGC protein.
A CHO-K1 cell line stably expressing the sGC α1/β1 heterodimer was generated using a standard transfection protocol. The cDNA's encoding human sGC α1 and β1 were cloned in pIRES hyg and pIRES neo respectively using standard molecular biology techniques. The plasmids pIRES hyg and pIRES neo plasmids were obtained from Clontech. CHO-K1 cells were transfected with plasmids pIREShyg-hsGCα1 and pIRESneo-hsGCβ1 simultaneously using FUGENE reagent. Clones that stably express both subunits were selected with hygromycin and neomycin for ˜2 weeks. The clone chosen for the assay was designated CHO-K1/sGC. CHO-K1/sGC cells were maintained in F-K12 medium containing 10% heat-inactivated Fetal Bovine Serum (FBS), 100 μg/mL penicillin/streptomycin, 0.5 mg/mL hygromycin and 0.25 mg/mL G418. The cells were then cryopreserved in liquid nitrogen. On the day of the assay, the cells were thawed and resuspended in EBSS Assay Buffer (Sigma, E3024) supplemented with 5 mM MgCl2, 10 mM HEPES (4-(2-hydroxyethyl)piperazine-1-ethanesulfonic acid) and 0.05% BSA (bovine serum albumin) and cell density was then adjusted to 2.25×10^5/mL with EAB. IBMX (3-isobutyl-1-methylxanthin, 0.5 mM) was added to inhibit degradation of cGMP. Compounds were diluted from DMSO stock solutions and added to the assay at a final DMSO concentration of 2.5%. Cells were pre-incubated in the presence and absence of 1 μM of Diethylenetriamine/nitric oxide adduct (DETA-NO; Sigma, 17018) for 30 min at 25° C. Compounds were subsequently added and incubated for 1 hr at 37° C. At the end of the incubation period, the reaction was terminated and the cells were lysed with the detection reagents from Cisbio Kits. The level of intracellular cGMP was determined using an HTRF-based assay kit (CisBio, 62GM2PEC), which detects the displacement of a fluorescence labeled cGMP from its specific antibody. The cGMP produced by test compounds was directly compared to the maximum cGMP production (this value was set to equal 100% activation) of the published sGC compound A (Example 1 in WO 2010/065275, published Jun. 10, 2010).
The test compounds' activities were then expressed as a percentage of compound A, the standard in every experiment. This percent activation was calculated either in the presence or absence of DETA-NO which was then plotted. Inflection points (IP) and maximum fold induction was derived using Abase analysis software for 4P fit.

In assay [1] the target is human recombinant sGC enzyme (Homo sapiens (Human), UniProt Q02108+Q02153). Nature of the assay: SEC competition binding assay with [3H] Compound B radioligand. Conditions: displacement of 1.6 nM [3H] Compound B, 24 h at 37° C. The method, then:
The binding potencies of sGC compounds to the human recombinant sGC enzyme were determined in a Size Exclusion Chromatography (SEC) competition binding assay using [^3H] Compound B as the radioligand. [^3H] Compound B was prepared using a standardardized tritium exchange procedure. The parent (non-labeled) molecule was first iodinated then a Pd-catalyzed iodine to tritium exchange provided the labeled compound.
Method: The binding buffer was composed of 50 mM triethanolamine pH 7.4, 3 mM MgCl2, 0.025% BSA, 2 mM dithiothreitol (DTT), 300 μM DETA/NO and 400 μM GTP. Assays were conducted in 96-well plates in a total volume of 200 μL. Recombinant human sGC protein (40 ng) was incubated with 1.6 nM [^3H] Compound B for 24 h at 37° C. in the presence and absence of various concentrations of sGC testing compounds delivered as DMSO solutions to give a total of 1% organic solvent content. Non-specific binding was defined by competition with 1 μM of Compound B. After the incubation period, the binding mixtures were loaded onto the gel-filtration plate (ThermoFischer Cat. No. 89808) pre-equilibrated with binding buffer and spun at 1000×g for 3 min at 4° C. on a Bench top centrifuge. The collected eluates in White Frame Clear Well Isoplates (Perkin Elmer Cat #6005040) received 100 μl of UltimaGold scintillation cocktail. The sealed plates were shaken vigorously and span, and counted after 6 hs with a Wallac Microbeta TriLux 1450 LSC & Luminescence Counter (Perkin Elmer). Data from competition experiments were analyzed to determine Ki values using one site—fit Ki equation.

Structures are written as SMILES.

For `CC1(c2cc(O)c(Cl)c(F)c2)C(=O)Nc2nc(-c3cn4ccnc4c(Cc4cc(F)cc(F)c4F)n3)nc(N)c21` (stereo not drawn) [Example 7-B, 4-Amino-5-(4-chloro-3-fluoro-5-hydroxyphenyl)-5-methyl-2-{8-[(2,3,5-trifluorophenyl)methyl]imidazo[1,2-a]pyrazin-6-yl}-5,7-dihydro-6H-pyrrolo[2,3-d]pyrimidin-6-one], at sGC α1/β1 heterodimer, the Emax came to 102% and the EC50 was 217 nM. The Ki – broadly, a measure of affinity in units of concentration, obtained from inhibition or displacement – in assay [1] was determined as 0.098 nM.

Take `CC1(c2cc(O)c(F)c(F)c2)C(=O)Nc2nc(-c3cn4ccnc4c(Cc4ccccc4F)n3)nc(N)c21` (stereo not drawn) [Example 9-B, 4-Amino-5-(3,4-difluoro-5-hydroxyphenyl)-2-{8-[(2-fluorophenyl)methyl]imidazo[1,2-a]pyrazin-6-yl}-5-methyl-5,7-dihydro-6H-pyrrolo[2,3-d]pyrimidin-6-one]: at sGC α1/β1 heterodimer, the Emax amounted to 85% and the EC50 worked out at 1040 nM. Also, the Ki in assay [1] is 0.126 nM.

Turning to `CC1(c2cc(O)c(Cl)c(F)c2)C(=O)Nc2nc(-c3cn4ncnc4c(Cc4ccccc4F)n3)nc(N)c21` (stereo not drawn) [Example 10-B, 4-Amino-5-(4-chloro-3-fluoro-5-hydroxyphenyl)-2-{8-[(2-fluorophenyl)methyl]-[1,2,4]triazolo[1,5-a]pyrazin-6-yl}-5-methyl-5,7-dihydro-6H-pyrrolo[2,3-d]pyrimidin-6-one], at sGC α1/β1 heterodimer, the Emax is 132% and the EC50 was found to be 25 nM. Besides, the Ki in assay [1] turned out to be 0.128 nM.

For `CC1(c2cc(O)c(Cl)c(F)c2)C(=O)Nc2nc(-c3cn4ccnc4c(CC4CCCCC4)n3)nc(N)c21` (stereo not drawn) [Example 12-B, 4-Amino-5-(4-chloro-3-fluoro-5-hydroxyphenyl)-2-(8-(cyclohexylmethyl)imidazo[1,2-a]pyrazin-6-yl)-5-methyl-5,7-dihydro-6H-pyrrolo[2,3-d]pyrimidin-6-one], at sGC α1/β1 heterodimer, the Emax turned out to be 116% and the EC50 came out at 98 nM. In assay [1], the Ki stood at 0.153 nM.

Take `CC1(c2cc(O)c(C#N)c(F)c2)C(=O)Nc2nc(-c3cn4ncnc4c(CC4CCCCC4)n3)nc(N)c21` (stereo not drawn) [Example 15-B, 4-(4-Amino-2-(8-(cyclohexylmethyl)-[1,2,4]triazolo[1,5-a]pyrazin-6-yl)-5-methyl-6-oxo-6,7-dihydro-5H-pyrrolo[2,3-d]pyrimidin-5-yl)-2-fluoro-6-hydroxybenzonitrile]: at sGC α1/β1 heterodimer, the Emax came out at 107% and the EC50 came to 771 nM. Also, the Ki in assay [1] was found to be 0.158 nM.

As for `CC1(c2cc(O)c(Cl)c(F)c2)C(=O)Nc2nc(-c3cn4ccnc4c(Cc4cc(F)cc(F)c4)n3)nc(N)c21` (stereo not drawn) [Example 16-B, 4-Amino-5-(4-chloro-3-fluoro-5-hydroxyphenyl)-2-{8-[(3,5-difluorophenyl)methyl]imidazo[1,2-a]pyrazin-6-yl}-5-methyl-5,7-dihydro-6H-pyrrolo[2,3-d]pyrimidin-6-one], on sGC α1/β1 heterodimer, the Emax is 94% and the EC50 was 308 nM. The Ki in assay [1] is 0.158 nM.

`CC1(c2ccc(C(F)(F)F)c(O)c2)C(=O)Nc2nc(-c3cn4ccnc4c(Cc4cccc(F)c4)n3)nc(N)c21` (stereo not drawn) [Example 17-B, 4-Amino-2-{8-[(3-fluorophenyl)methyl]imidazo[1,2-a]pyrazin-6-yl}-5-(3-hydroxy-4-(trifluoromethyl)phenyl)-5-methyl-5,7-dihydro-6H-pyrrolo[2,3-d]pyrimidin-6-one]: on sGC α1/β1 heterodimer, the Emax amounted to 117% and the EC50 stood at 482 nM. Also, the Ki in assay [1] came out at 0.163 nM.

For `CC1(c2ccc(Cl)c(O)c2)C(=O)Nc2nc(-c3cn4ccnc4c(Cc4cc(F)ccc4F)n3)nc(N)c21` (stereo not drawn) [Example 19-A, 4-Amino-5-(4-chloro-3-hydroxyphenyl)-2-{8-[(2,5-difluorophenyl)methyl]imidazo[1,2-a]pyrazin-6-yl}-5-methyl-5,7-dihydro-6H-pyrrolo[2,3-d]pyrimidin-6-one], on sGC α1/β1 heterodimer, the Emax is 152% and the EC50 was 78 nM. In addition, in assay [1], the Ki was found to be 0.17 nM.

As for `CC1(c2ccc(Cl)c(O)c2)C(=O)Nc2nc(-c3cn4ccnc4c(Cc4ccc(F)c(F)c4)n3)nc(N)c21` (stereo not drawn) [Example 20-A, 4-Amino-5-(4-chloro-3-hydroxyphenyl)-2-{8-[(3,4-difluorophenyl)methyl]imidazo[1,2-a]pyrazin-6-yl}-5-methyl-5,7-dihydro-6H-pyrrolo[2,3-d]pyrimidin-6-one], at sGC α1/β1 heterodimer, the Emax was found to be 130% and the EC50 was 127 nM. Besides, in assay [1], the Ki is 0.173 nM.

Regarding `CC1(c2cc(O)c(Cl)c(F)c2)C(=O)Nc2nc(-c3cn4ncnc4c(CC4CCCCC4)n3)nc(N)c21` (stereo not drawn) [Example 21-B, 4-Amino-5-(4-chloro-3-fluoro-5-hydroxyphenyl)-2-(8-(cyclohexylmethyl)-[1,2,4]triazolo[1,5-a]pyrazin-6-yl)-5-methyl-5,7-dihydro-6H-pyrrolo[2,3-d]pyrimidin-6-one], at sGC α1/β1 heterodimer, the Emax is 143% and the EC50 came to 95 nM. Further, the Ki in assay [1] was 0.206 nM.

On to `CC1(c2ccc(F)c(O)c2)C(=O)Nc2nc(-c3cn4ccnc4c(Cc4ccc(F)cc4F)n3)nc(N)c21` (stereo not drawn) [Example 22-B, 4-Amino-2-{8-[(2,4-difluorophenyl)methyl]imidazo[1,2-a]pyrazin-6-yl}-5-(4-fluoro-3-hydroxyphenyl)-5-methyl-5,7-dihydro-6H-pyrrolo[2,3-d]pyrimidin-6-one], for which, at sGC α1/β1 heterodimer, the Emax was 128% and the EC50 worked out at 74 nM. Further, the Ki in assay [1] came to 0.214 nM.

Take `CC1(c2ccc(O)c(F)c2)C(=O)Nc2nc(-c3cn4ccnc4c(Cc4ccccc4F)n3)nc(N)c21` (stereo not drawn) [Example 24-B, 4-Amino-5-(3-fluoro-4-hydroxyphenyl)-2-{8-[(2-fluorophenyl)methyl]imidazo[1,2-a]pyrazin-6-yl}-5-methyl-5,7-dihydro-6H-pyrrolo[2,3-d]pyrimidin-6-one]: at sGC α1/β1 heterodimer, the Emax came out at 88% and the EC50 was 752 nM. Further, in assay [1], the Ki was found to be 0.241 nM.

As to `CC1(c2ccc(Cl)c(O)c2)C(=O)Nc2nc(-c3cn4ncnc4c(Cc4ccc(F)cc4)n3)nc(N)c21` (stereo not drawn) [Example 26-A, 4-Amino-5-(4-chloro-3-hydroxyphenyl)-2-{8-[(4-fluorophenyl)methyl]-[1,2,4]triazolo[1,5-a]pyrazin-6-yl}-5-methyl-5,7-dihydro-6H-pyrrolo[2,3-d]pyrimidin-6-one], at sGC α1/β1 heterodimer, the Emax was found to be 105% and the EC50 came out at 426 nM. The Ki in assay [1] was found to be 0.276 nM.

In the case of `CC1(c2cc(O)c(C#N)c(F)c2)C(=O)Nc2nc(-c3cn4ncnc4c(Cc4cc(F)cc(F)c4)n3)nc(N)c21` (stereo not drawn) [Example 27-B, 4-(4-Amino-2-{8-[(3,5-difluorophenyl)methyl]-[1,2,4]triazolo[1,5-a]pyrazin-6-yl}-5-methyl-6-oxo-6,7-dihydro-5H-pyrrolo[2,3-d]pyrimidin-5-yl)-2-fluoro-6-hydroxybenzonitrile], on sGC α1/β1 heterodimer, the Emax is 94% and the EC50 turned out to be 489 nM. For the same compound, in assay [1], the Ki was 0.28 nM.

The record behind these values is patent US10780092B2, “Fused pyrazine derivatives useful as soluble guanylate cyclase stimulators” (Merck Sharp & Dohme Corp., priority 2016, dated 2020).
